# According to paper PMC2816717, “Active Fragments from Pro- and Antiapoptotic BCL-2 Proteins Have Distinct Membrane Behavior Reflecting Their Functional Divergence” (PLoS ONE, 2010):
# Columns and labels:
# [1] = tested on: mitochondria isolated from HEK293T cells; experiment: Cytochrome c release assay; format: biochemical
# Method: Thus, we tested the ability of the different peptides to induce the release of mitochondrial proteins by incubating them with mitochondria isolated from HEK293T cells, and subsequently assaying the supernatant and pelleted fractions with antibodies for cytochrome c and mitoHSP70. […] On the other hand, incubation of mitochondria with 10 µM BID-α6 induced a slower release, with depletion of the mitochondrial pool of cytochrome c occurring only after 1 hour incubation.
# (§1) Figure 7 Cytochrome c release assays. Peptides were incubated with isolated mitochondria for the indicated times (min) and the release of cytochrome c was monitored by Western blotting (IB). MitoHSP70 was used as an equal-loading control for the pellet fraction. Control lanes indicate that in the preparation the MOM is intact and cytochrome c is retained within the intermembrane space. A. Cytochrome c release assays for the first (BAX-α5S, BCLX-α5S, BID-α6) and second helices (BAX-α6, BCLX-α6, BID-α7) of the ‘pore domain’ of BAX, BCL-xL and BID using mitochondria isolated from HEK293T cells. B. Cytochrome c release assays for BAX-α5M and BAX-α5MS using mitochondria isolated from MEF and MEK BAX/BAK -/- double knock-out cells (MEF DKO). C. Cytochrome c release assays for the BH3 peptides.
# (§2) Crude mitochondria were prepared from HEK 293T, mouse embryo fibroblast (MEF) or BAX/BAK double knockout MEF cells (MEF-DKO). In brief, cells were mechanically broken using a 2 ml glass/glass Dounce homogenizer (Kontes) (30 strokes). Homogenates were cleared at 1500 g and mitochondria were spun down at 10 000 g. For cytochrome c release assays, 30 µg of crude mitochondria were resuspended at 1 mg/ml in KCl buffer supplemented with succinate (5 mM) and EGTA (0.5 mM). Peptides (2.5, 10 or 25 µM) were added to the samples and incubations were carried out at 30°C under agitation (300 rpm). At the indicated time points, samples were centrifuged (5 min, 10 000 g, 4°C); supernatants and pellets were recovered and analyzed by immunoblotting for Cytochrome c and mitoHsp70.
# [2] = Langmuir monolayer penetration assay, lipid mixture not singled out (Figure 5); format: physicochemical; settings: πi 5 mN/m; for final increase of surface pressure πmax (insertion), in words: Figure 5A; for final increase of surface pressure πmax (insertion), in words / initial velocity of surface pressure increase Vi (affinity), in words: peptide 0.2 µM, Hepes pH 7.4, duplicate; for initial velocity of surface pressure increase Vi (affinity), in words: Figure 5B
# Source text: (§3) For the biophysical characterization of membrane active protein fragments, we have used Langmuir monolayers as in vitro model of lipid membranes. These supramolecular lipid films formed at the air-water interface are attractive membrane models, widely used for studying peptide-lipid interactions, [56], [57]. We have investigated the binding of peptides derived from the central helices of BAX, BCL-xL and BID at physiological pH with model phospholipid monolayers of a composition that imitates mitochondrial membranes. For this purpose we selected fragments encompassing the sequences corresponding to the first or second α-helices of the core hairpins of BAX, BCL-xL and BID, as defined in the water-soluble protein structures, [17], [19]. Because the structures of those proteins in a membrane environment is currently unavailable, for the case of the first hairpin helix of BAX and BCL-xL (α5) we analyzed both a short version (labeled “S”), including only the reported α-helical residues, and a long version (labeled “L”) that extends a few residues beyond the α-helix stretch at both ends. Divergence of the BID sequence precluded unambiguous alignment with the other two proteins and a similar peptide design. Peptides corresponding to the BH3 domain of BAX, BCL-xL and BID were also included in the study. The sequence and some general properties of the peptides analyzed in this study are described in Table 1 and Figure 1). Lipid mixtures of POPC/DOPE (2∶1) and POPC/DOPE/CL (1∶1∶1) were chosen to mimic the MOM and the contact sites between inner and outer mitochondrial membrane (MIM/MOM), respectively. Penetration assays were carried out at constant area by spreading the lipids at the air-buffer interface, compressing the film at πi = […] and then injecting the peptides into the subphase at a concentration of 0.2 µM (see Material and Methods). Subsequent peptide binding results typically in an increase of surface pressure. Thus, the peptide-monolayer interaction can be characterized by measurable kinetic properties, such as the initial velocity of surface pressure increase (Vi), which informs about the affinity of the peptide for the lipid-water interface, and the final increase of surface pressure (πmax), which can be related to the insertion ability of the peptide into the monolayer.
# Figure 5 Changes in surface pressure after peptide injection. Peptides were injected underneath POPC/DOPE or POPC/DOPE/CL monolayers at constant area. A. Final increase of surface pressure πmax (mN/m) obtained for the different peptides. The dashed line denotes the threshold (Δπ = 4.8 mN/m) for significant surface pressure variation as determined using BAX-α5S without lipids (see text). B. Initial velocity of surface pressure increase (Vi = Δπ/s).
# (§4) Monolayer experiments were performed on a computer-controlled Langmuir film balance (KSV 2000, three multi-compartment system, KSV Instrument Ltd., Finland) working in a symmetrical compression mode and enclosed in an opaque cabinet. The rectangular trough (V = 85 mL ±1 mL, S = 119.25 cm^2) was made of Teflon and the mobile barriers were made in Delrin. The surface pressure, π defined as γ0 – γ, where γ0 is the surface tension of the pure aqueous subphase and γ the surface tension exerted by phospholipids at the subphase surface, was measured by the Wilhelmy's method using a platinum plate with an accuracy of ±0.05 mN/m. The trough was filled with Hepes buffer (pH 7.4), used as subphase and thermostated with a water circulating bath (Lauda E100, LAUDA France, SARL). In all experiments, the subphase temperature was maintained at a constant value of 22.5±0.5°C.
# Phospholipid monolayers were formed by deposition of 14 µl of spreading solutions at a clean air/buffer interface by means of a micropipette to reach a final amount of 14 nmol of phospholipids. […]
# [3] = tested on: mitochondria isolated from BAX/BAK double knockout mouse embryonic fibroblasts (MEF DKO); experiment: Cytochrome c release assay; format: biochemical; settings: Figure 7B
# Method: as §1
# Crude mitochondria were prepared from HEK 293T, mouse embryo fibroblast (MEF) or BAX/BAK double knockout MEF cells (MEF-DKO). In brief, cells were mechanically broken using a 2 ml glass/glass Dounce homogenizer (Kontes) (30 strokes). Homogenates were cleared at 1500 g and mitochondria were spun down at 10 000 g. […] At the indicated time points, samples were centrifuged (5 min, 10 000 g, 4°C); supernatants and pellets were recovered and analyzed by immunoblotting for Cytochrome c and mitoHsp70.
# [4] = Langmuir monolayer penetration assay at constant area; format: physicochemical; settings: control peptides, Figure S2 legend; unit not given (Δπ elsewhere in mN/m); conditions as Fig. 5: πi 5 mN/m, 0.2 µM
# Source text: as §3, §4
# Phospholipid monolayers were formed by deposition of 14 µl of spreading solutions at a clean air/buffer interface by means of a micropipette to reach a final amount of 14 nmol of phospholipids. After complete evaporation of the solvent (∼15 min), the monolayer was slowly compressed up to a defined lateral pressure (initial surface pressure πi) at a rate of 0.045 nm^2 molecule^−1 min^−1. The value of πi = 5 mN/m was chosen because it lies between the surface pressure set-off and surface pressures (e.g. 30 mN/m, which corresponds to a tightly packed film) where many peptides of the study will not insert. […]
# isolated mitochondria = experiment: Cytochrome c release assay, source of mitochondria not stated; format: biochemical; settings: for effect on isolated mitochondria, in words: summary in Discussion
# Method: as §1
# Last, we proceeded to perform similar dose-response experiments by measuring cytochrome c release from isolated mitochondria with peptides derived from the BH3 domains of BAX, BID and BCL-xL. […] On the other hand, the BH3 peptides from BAX and BID triggered mitochondrial cytochrome c release, although with markedly less efficiency (starting at 25 µM after 15–30 min of peptide exposure) than BAX-α5, BAX-α6 or BID-α6.
# as §2
# [5] = 10 µM peptide, 5 min incubation, 30°C, Western blot of supernatant and pellet
# [6] = long versus short α5 peptide, 0.2 µM
# [7] = only at the highest concentration assayed, 25 µM, 5 min
sequence,measurement,setting,value
"DGNFNWGRVVALFYFASKLVLKALSTKVPELIRT [BAX-α5L, long version of BAX helix α5, extended at both ends]","cytochrome c release, in words",[1]; [5],some residual cytochrome c was still present in the mitochondrial pellet
same,"final increase of surface pressure πmax (insertion), in words",[2],much lower value
same,surface pressure compared to BAX-α5S,[2]; [6],about half
"ELIRTIMGWTLDFLRERLLVWIQD [BAX-α6, second helix (α6) of the central hairpin of BAX]","cytochrome c release, in words",[1]; [5],complete depletion of all mitochondrial cytochrome c
same,"final increase of surface pressure πmax (insertion), in words",[2],highest increases in surface pressure
NWGVVKALFYFASVLRLKALSTKVPELIR [BAX-α5MS],"kinetics of cytochrome c release, in words","[3]; mitochondria from MEF and MEF DKO, relative to BAX-α5M",increased lag time and a decreased rate of cytochrome c release
same,"final increase of surface pressure πmax (insertion), in words",[2],reduced surface pressure compared to BAX-α5M
"EQIMKTGAFLLQGFIQDRAGRW [BAX-α1, control peptide, first helix localized at the N-terminus of BAX, reference compound]",Δπ in POPC/DOPE monolayers,[4],4
same,Δπ in POPC/DOPE/CL monolayers,[4],3.4
"EKEKTMLVLALLLAKKVASH [BID-α6, first helix (α6) of the central hairpin of BID]",incubation time at which the mitochondrial pool of cytochrome c is depleted,"[1]; 10 µM peptide, 30°C, Western blot",1 h
same,"final increase of surface pressure πmax (insertion), in words",[2],higher than the one of the BH3 peptides
"WGRIVAFFSFGGALSVESVDK [BCLX-α5S, short peptide of helix α5 of BCL-xL]","effect on isolated mitochondria, in words",isolated mitochondria,lack of effect
same,"cytochrome c release, in words","[1]; all doses and times tested (2.5, 10 or 25 µM)",completely failed to release cytochrome c
same,"final increase of surface pressure πmax (insertion), in words",[2],lowest increase of surface pressure
same,"initial velocity of surface pressure increase Vi (affinity), in words",[2],strong
"SLLRDVFHTTVNFINQANLRTYVR [BID-α7, second helix (α7) of the central hairpin of BID]","effect on isolated mitochondria, in words",isolated mitochondria,lack of effect
same,"final increase of surface pressure πmax (insertion), in words",[2],lowest increase of surface pressure
"VPQDASTKKLSECLKRIGDELDSNMELQR [BAX-BH3, peptide corresponding to the BH3 domain of BAX]",concentration at which cytochrome c release starts,"isolated mitochondria; BH3 peptides, Figure 7C",25 µM
"VLVSRIAAWMATYLNDHLEPWIQE [BCLX-α6, second helix (α6) of the central hairpin of BCL-xL]","cytochrome c release, in words",[1]; [7],release of large amounts of cytochrome c
same,"final increase of surface pressure πmax (insertion), in words",[2],higher than the one of the BH3 peptides
same,"initial velocity of surface pressure increase Vi (affinity), in words",[2],strong
"TARWKKWGFQPRLKEQEGDVARDSQR [BCL2L10-LAAS, control peptide, connecting region between predicted α5-α6 helices of BCL2L10 (Long Amino Acid Stretch), reference compound]",Δπ in POPC/DOPE monolayers,[4],3.4
same,Δπ in POPC/DOPE/CL monolayers,[4],5.5
"ESQEDIIRNIARHLAQVGDSMDRSIPPGL [BID-BH3, peptide corresponding to the BH3 domain of BID]",concentration at which cytochrome c release starts,"isolated mitochondria; BH3 peptides, Figure 7C",25 µM
same,"initial velocity of surface pressure increase Vi (affinity), in words",[2],strong
"AREVIPMAAVKQALREAGDEFELRYRRAF [BCLX-BH3, peptide corresponding to the BH3 domain of BCL-xL]","cytochrome c release, in words","isolated mitochondria; BH3 peptides, dose-response, Figure 7C",no cytochrome c release
same,"effect on isolated mitochondria, in words",isolated mitochondria,lack of effect
"RDGVNWGRIVAFFSFGGALSVESVDKEMQVLVSR [BCLX-α5L, long version of helix α5 of BCL-xL]","cytochrome c release, in words",[1]; [7],release of large amounts of cytochrome c
same,"final increase of surface pressure πmax (insertion), in words",[2],higher than the one of the BH3 peptides
same,increase in surface pressure compared to BCLX-α5S,[2]; [6],~5 fold
NWGRVVALFYFASKLVLKALSTKVPELIR [BAX-α5M],"cytochrome c release, in words",[3]; mitochondria from MEF DKO,Cytochrome c release also occurred
same,"initial velocity of surface pressure increase Vi (affinity), in words",[2],slightly smaller
"VPQDASTKKLSECEKRIGNELDSNMELQR [BAX-BH3m, BAX BH3 mutant harboring substitutions (L63E/D68N)]","cytochrome c release, in words",isolated mitochondria; even at 100 µM (data not shown),failed to induce cytochrome c release
